Source: PubChem BioAssay (NCI)
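Protocol summary: plate cells (96-well), add compound at 5 concentrations, incubate 48 h, interpolate endpoints linearly. GI50 marks 50% less growth. TGI marks complete inhibition of growth.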

Columns and labels:
Experiment in all cases: NCI tumour cell line growth inhibition, 48 h
[1] = test system: ACHN renal
[2] = test system: MOLT-4 leukemia
[3] = test system: HOP-62 NSCLC
[4] = test system: IGROV1 ovarian
[5] = test system: M14 melanoma
[6] = test system: OVCAR-3 ovarian
[7] = test system: MALME-3M melanoma
[8] = test system: HCT-15 colon
[9] = test system: CAKI-1 renal
[10] = test system: MCF7 breast
[11] = test system: SN12C renal
[12] = test system: SW-620 colon
[13] = test system: SF-539 CNS
[14] = test system: SNB-19 CNS
[15] = test system: A549 NSCLC
[16] = test system: HS 578T breast
[17] = test system: CCRF-CEM leukemia
[18] = test system: PC-3 prostate
[19] = test system: OVCAR-4 ovarian
[20] = test system: TK-10 renal
[21] = test system: HCT-116 colon
[22] = test system: KM12 colon
[23] = test system: OVCAR-8 ovarian
[24] = test system: NCI/ADR-RES ovarian
[25] = test system: T-47D breast
[26] = test system: UACC-257 melanoma
[27] = test system: BT-549 breast
[28] = test system: NCI-H522 lung
[29] = test system: MDA-MB-435
[30] = test system: K-562 leukemia
[31] = test system: HL-60(TB) leukemia
[32] = test system: LOX IMVI melanoma
[33] = test system: COLO 205 colon
[34] = test system: DU-145 prostate
[35] = test system: HCC-2998 colon
[36] = test system: NCI-H23 lung
[37] = test system: UO-31 renal
[38] = test system: SK-MEL-2 melanoma
[39] = test system: EKVX NSCLC
[40] = test system: SF-268 CNS
[41] = test system: RPMI-8226 leukemia
[42] = test system: HOP-92 NSCLC
[43] = test system: NCI-H226 lung
[44] = test system: SK-MEL-5 melanoma
[45] = test system: RXF 393 renal
[46] = test system: UACC-62 melanoma
[47] = test system: SF-295 CNS
[48] = test system: 786-0 renal
[49] = test system: SK-MEL-28 melanoma
[50] = test system: SNB-75 CNS
[51] = test system: A498 renal
[52] = test system: HT29 colon
[53] = test system: MDA-MB-231 breast
[54] = test system: SK-OV-3 ovarian
[55] = test system: SR leukemia
[56] = test system: NCI-H460 lung
[57] = test system: OVCAR-5 ovarian
[58] = test system: U251 CNS

CN1CCN(Cc2ccc(NC(=O)c3cncc(C#Cc4cnc5ccc(O[C@@H]6CCOC6)nn45)c3)cc2C(F)(F)F)CC1
GI50 [1]: 171 nM
TGI [1]: 670 nM
GI50 [2]: 81.8 nM
TGI [2]: 1320 nM
GI50 [3]: 176 nM
TGI [3]: 641 nM
GI50 [4]: 89.4 nM
TGI [4]: 587 nM
GI50 [5]: 66.2 nM
TGI [5]: 181 nM
GI50 [6]: 194 nM
TGI [6]: 768 nM
GI50 [7]: 61.3 nM
TGI [7]: 294 nM
GI50 [8]: 161 nM
TGI [8]: 639 nM
GI50 [9]: 122 nM
TGI [9]: 596 nM
GI50 [10]: 80.4 nM
TGI [10]: 580 nM
GI50 [11]: 120 nM
TGI [11]: 636 nM
GI50 [12]: 153 nM
TGI [12]: 623 nM
GI50 [13]: 99.8 nM
TGI [13]: 715 nM
GI50 [14]: 301 nM
TGI [14]: 1220 nM
GI50 [15]: 195 nM
TGI [15]: 693 nM
GI50 [16]: 127 nM
TGI [16]: 565 nM
GI50 [17]: 75.1 nM
TGI [17]: 3050 nM
GI50 [18]: 277 nM
TGI [18]: 1210 nM
GI50 [19]: 155 nM
TGI [19]: 940 nM
GI50 [20]: 177 nM
TGI [20]: 632 nM
GI50 [21]: 64.9 nM
TGI [21]: 454 nM
GI50 [22]: 5 nM
TGI [22]: 539 nM
GI50 [23]: 160 nM
TGI [23]: 634 nM
GI50 [24]: 676 nM
TGI [24]: 1910 nM
GI50 [25]: 556 nM
TGI [25]: 1310 nM
GI50 [26]: 531 nM
TGI [26]: 1240 nM
GI50 [27]: 646 nM
TGI [27]: 1290 nM
GI50 [28]: 107 nM
TGI [28]: 277 nM
GI50 [29]: 125 nM
TGI [29]: 653 nM
GI50 [30]: 5 nM
TGI [30]: 1790 nM
GI50 [31]: 75.2 nM
TGI [31]: 364 nM
GI50 [32]: 139 nM
TGI [32]: 635 nM
GI50 [33]: 109 nM
TGI [33]: 220 nM
GI50 [34]: 187 nM
TGI [34]: 642 nM
GI50 [35]: 260 nM
TGI [35]: 886 nM
GI50 [36]: 178 nM
TGI [36]: 729 nM
GI50 [37]: 173 nM
TGI [37]: 682 nM
GI50 [38]: 114 nM
TGI [38]: 321 nM
GI50 [39]: 288 nM
TGI [39]: 942 nM
GI50 [40]: 158 nM
TGI [40]: 562 nM
GI50 [41]: 265 nM
TGI [41]: 1260 nM
GI50 [42]: 27.3 nM
TGI [42]: 117 nM
GI50 [43]: 47.8 nM
TGI [43]: 911 nM
GI50 [44]: 586 nM
TGI [44]: 1220 nM
GI50 [45]: 143 nM
TGI [45]: 405 nM
GI50 [46]: 165 nM
TGI [46]: 809 nM
GI50 [47]: 454 nM
TGI [47]: 1180 nM
GI50 [48]: 265 nM
TGI [48]: 833 nM
GI50 [49]: 186 nM
TGI [49]: 813 nM
GI50 [50]: 124 nM
TGI [50]: 510 nM
GI50 [51]: 606 nM
TGI [51]: 1250 nM
GI50 [52]: 111 nM
TGI [52]: 602 nM
GI50 [53]: 82.5 nM
TGI [53]: 475 nM
GI50 [54]: 449 nM
TGI [54]: 1120 nM
GI50 [55]: 82.3 nM
TGI [55]: 490 nM
GI50 [56]: 182 nM
TGI [56]: 703 nM
GI50 [57]: 223 nM
TGI [57]: 883 nM
GI50 [58]: 270 nM
TGI [58]: 933 nM
